Assay results: patent publication US4661297A, “Basic ethers of 7-oxo-7H-benzo(c) fluorene and a process for their production” (SPOFA, spojene podniky pro zdravotnickou vyrobu, priority 1980, dated 1987)
Structures can show the parent of a compound that is named as a salt. Where two headings read alike, the source gives them in different places.

Key:
Yoshida's Tumor = experiment: Inhibition of incorporation of labelled substrates in Yoshida's tumor; format: cell-based; conditions: Rattus norvegicus, (U-14C) amino acid mixture, Table VI, read-out: IC50 (concentration lowering initial rate of 14C incorporation to 50% of control)
From the text: Tumor growth may be observed clinically or in experiments in vivo, that is, with experimental animals, or in vitro, for example, in tissue cultures prepared from tumors. Assessment of tumor growth may be effected by measuring the weight of the tumor mass or, more effectively, by measuring the radioactivity after incorporation therein of certain substances of natural origin such as amino acids, adenine, thymidine and the like labelled with radioactive atoms such as ^14 C, ^3 H, etc.
Thus, by way of exemplification, the IC^50 values (inhibitory concentration which lowered the initial rate of ^14 C incorporation to 50% of control) are shown in Table VI, below (Yoshida's Tumor, (U-^14 C) amino acid mixture)
The ^IC 50 values of compound 13468 are also shown in Table VII with varying substrates.

[1] = system: Ehrlich's ascitic carcinoma; experiment: Incorporation of 14C-adenine and 14C-valine into cellular fraction of Ehrlich's ascitic carcinoma in vitro; format: cell-based, mouse; conditions: for Radioactivity incorporation, adenine: control 1060 cpm; for Radioactivity incorporation, valine: control 2455 cpm; for activity at 75 µM / activity at 150 µM / activity at 300 µM / activity at 600 µM / IC50 / activity at 37.5 µM: Mus musculus, Ehrlich; for IC50: in vitro
From the text: In Table 4, the effect of Tiloron (NSC 143969; 2,7-bis-[2-(diethylamino)ethoxy]fluorene-9-one) and 5-(2-dimethylaminoethoxy)-7-oxo-7H-benzo(c) fluorene hydrochloride are compared on incorporation of ^14 C-adenine and ^14 C-valine with the cellular fraction of Ehrlich's ascitic carcinoma (insoluble in trichloacetic acid). The tests in vitro reveal that the composition of the invention was more than 10 times as effective as Tiloron. The inhibition of incorporation of adenine and valine into the used system of tumor cells is considered as an indication of an anti-tumorous, cytostatic action. This biological activity of the described compound is considerably greater than that of its congener Tiloron. (See also Table 4.)
Effects of Tiloron and substance 13468 on incorporation of ^14
C-adenine and ^14 C-valine
into cellular fraction of Ehrlichs ascitic carcinoma, insoluble in
in vitro. Radioactivity incorporation expressed in cpm.
IC50 = concentration inhibiting incorporation by 50 percent.

[2] = system: EST: Ehrlich's solid tumor; experiment: Effect on course of transplanted Ehrlich's solid tumor in mice; format: in vivo, mouse (H); conditions: days 5,7,9,12; for Relative tumour size (% of control value): assessed day 14
From the text: (§1) The therapeutic effect of the described compounds on transplanted tumors in experimental animals is shown in Tables 1-3, on the following five pages.
(§2) &=statistically significant differences versus control at P=0.05
EST: Ehrlich's solid tumor in H mice

Yoshida's ascitic tumor = experiment: Effect on course of transplanted Yoshida's ascitic tumor in rats; format: in vivo, rat (Wistar); conditions: for % of animals surviving day 35 after transplantation: control K = 0%
From the text: as §1, §2
Y: Yoshida's ascitic tumor in Wistar rats

Acute toxicity in mice = conditions: mouse, in vivo, sc; subcutaneously; mice S, males 22-24 gram
From the text: The anti-tumor compounds described herein have also been studied from the standpoint of toxicity and the conclusion drawn that they are not toxic to mammalian hosts. The toxicological data set forth in Table IX, below, supports this conclusion.

La leukaemia = experiment: Effect on course of transplanted La leukaemia in mice; format: in vivo, mouse (C57 Bl)
From the text: as §1, §2
La: La leukaemia in mice C57 Bl

[3] = system: Kr2: Krebs' ascitic tumor; experiment: Effect on course of transplanted Krebs' ascitic tumor in mice; format: in vivo, mouse (H); conditions: p.o. 2×150 mg/kg, days 1,8, significant (&)
From the text: as §1, §2
Kr2 : Krebs' ascitic tumor in H mice

L1210 leukaemia = experiment: Effect on course of transplanted L1210 leukaemia in mice; format: in vivo, mouse (hybrid DBA/H)
From the text: as §1, §2
L1210 : Leukaemia growing in the form of ascitic tumors in hybrid DBA/H mice

Sa37 ascitic tumor = experiment: Effect on course of transplanted Sa37 ascitic tumor in mice; format: in vivo, mouse (H); conditions: p.o. 3×75 mg/kg, days 1,4,7
From the text: as §1, §2
Sa37 : Ascitic tumors in H mice

[4] = system: HK: solid tumors, originally spontaneous mammary-gland adenocarcinoma; experiment: Effect on course of transplanted HK solid mammary-gland adenocarcinoma in mice; format: in vivo, mouse (H); conditions: for Relative tumour size (% of control value): assessed day 14
From the text: as §1, §2
HK: Solid tumors, originally spontaneous mammary-gland adenocarcinoma in H mice

[5] = p.o. 4×100 mg/kg, significant (&)
[6] = o. (oral) 3×50 mg/kg, days 1,4,8, significant (&)
[7] = o. (oral) 3×75 mg/kg, days 1,4,8, significant (&)
[8] = o. (oral) 5×100 mg/kg, days 1-5, Tables I and II, significant (&)
[9] = s.c. 5×50 mg/kg, days 1-5, Tables I and II, significant (&)
[10] = p.o. 2×150 mg/kg, days 5,12, significant (&)
[11] = p.o. 4×100 mg/kg, days 5,7,9,12, significant (&)

SMILES: CCN(CC)CCOc1ccc2c(c1)C(=O)c1cc(OCCN(CC)CC)ccc1-2 [Tiloron, 2,7-bis-[2-(diethylamino)ethoxy]fluorene-9-one]
- IC50 (Yoshida's Tumor): 154 µM
- Radioactivity incorporation, adenine ([1]; 75 μM): 1252 cpm
- Radioactivity incorporation, valine ([1]; 75 μM): 2374 cpm
- Radioactivity incorporation, adenine ([1]; 150 μM): 1096 cpm
- Radioactivity incorporation, valine ([1]; 150 μM): 2247 cpm
- Radioactivity incorporation, adenine ([1]; 300 μM): 979 cpm
- Radioactivity incorporation, valine ([1]; 300 μM): 2443 cpm
- Radioactivity incorporation, adenine ([1]; 600 μM): 563 cpm
- Radioactivity incorporation, valine ([1]; 600 μM): 1944 cpm
- Radioactivity incorporation, adenine ([1]; 37,5 μM): 1160 cpm
- Radioactivity incorporation, valine ([1]; 37,5 μM): 2395 cpm
- activity at 75 µM ([1]; 75 μM, read-out: Incorporation of adenine relative to control (0 μM = 100%)): 118%
- activity at 75 µM ([1]; 75 μM, read-out: Incorporation of valine relative to control (0 μM = 100%)): 97%
- activity at 150 µM ([1]; 150 μM, read-out: Incorporation of adenine relative to control (0 μM = 100%)): 103%
- activity at 150 µM ([1]; 150 μM, read-out: Incorporation of valine relative to control (0 μM = 100%)): 92%
- activity at 300 µM ([1]; 300 μM, read-out: Incorporation of adenine relative to control (0 μM = 100%)): 92%
- activity at 300 µM ([1]; 300 μM, read-out: Incorporation of valine relative to control (0 μM = 100%)): 100%
- activity at 600 µM ([1]; 600 μM, read-out: Incorporation of adenine relative to control (0 μM = 100%)): 53%
- activity at 600 µM ([1]; 600 μM, read-out: Incorporation of valine relative to control (0 μM = 100%)): 79%
- IC50 ([1]; 14C-adenine, read-out: IC50 (concentration inhibiting incorporation by 50 percent), adenine): 600 µM
- IC50 ([1]; 14C-valine, read-out: IC50 (concentration inhibiting incorporation by 50 percent), valine): 600 µM
- activity at 37.5 µM ([1]; 37,5 μM, read-out: Incorporation of adenine relative to control (0 μM = 100%)): 109%
- activity at 37.5 µM ([1]; 37,5 μM, read-out: Incorporation of valine relative to control (0 μM = 100%)): 98%

SMILES: CN(C)CCCOc1cc2c(c3ccccc13)-c1ccccc1C2=O.Cl [compound 13466, 5-(3-Dimethylaminopropoxy)-7-oxo-7H-benzo(c) fluorene hydrochloride]
- Relative tumour size (% of control value) ([2]; p.o. 4×50 mg/kg, marked ^): 77%
- Survival time of animals with respect to geom. mean ([2]; p.o. 4×50 mg/kg, significant (&)): 135%
- Relative tumour size (% of control value) [2, 5]: 70%
- Survival time of animals with respect to geom. mean [2, 5]: 134%
- % of animals surviving day 35 after transplantation (Yoshida's ascitic tumor; [6]): 50%
- Survival time of animals with respect to geom. mean (Yoshida's ascitic tumor; [6]): 152%
- % of animals surviving day 35 after transplantation (Yoshida's ascitic tumor; [7]): 40%
- Survival time of animals with respect to geom. mean (Yoshida's ascitic tumor; [7]): 140%
- Survival time of animals with respect to geom. mean (Yoshida's ascitic tumor; o. (oral) 5×100 mg/kg, days 1-5, Table III, significant (&)): 135%
- Survival time of animals with respect to geom. mean (Yoshida's ascitic tumor; [8]): 135%
- Survival time of animals with respect to geom. mean (Yoshida's ascitic tumor; s.c. 5×50 mg/kg, days 1-5, Table III, marked ^): 103%
- Survival time of animals with respect to geom. mean (Yoshida's ascitic tumor; [9]): 177%
- LD50 (Acute toxicity in mice): 320 mg/kg
- Survival time of animals with respect to median (La leukaemia; s.c. 1×200 mg/kg, day 3 after transplantation, significant vs control (&, P=0.05)): 113%
- Survival time of animals with respect to median (La leukaemia; s.c. 1×250 mg/kg, day 3, significant (&)): 500%
- Relative tumour size (% of control value) ([3]; assessed day 10): 62%
- Survival time of animals with respect to geom. mean [3]: 128%
- Survival time of animals with respect to median (L1210 leukaemia; s.c. 6×50 mg/kg, days 1;5;8;12;15;19, significant (&)): 117%
- Survival time of animals with respect to median (L1210 leukaemia; s.c. 6×75 mg/kg, days 1;5;8;12;15;19, significant (&)): 142%
- Survival time of animals with respect to median (L1210 leukaemia; s.c. 6×100 mg/kg, days 1;5;8;12;15;19, significant (&)): 142%
- Survival time of animals with respect to median (L1210 leukaemia; s.c. 6×125 mg/kg, days 1;5;8;12;15;19, marked ^): 168%
- IC50 (Yoshida's Tumor): 120 µM
- Relative tumour size (% of control value) (Sa37 ascitic tumor; assessed day 10, marked ^): 92%
- Survival time of animals with respect to geom. mean (Sa37 ascitic tumor; significant (&)): 123%
- Survival time of animals with respect to geom. mean ([4]; o. (oral) 8×50 mg/kg, days 5-10,12,13, Table I, significant (&)): 131%
- Relative tumour size (% of control value) ([4]; o. (oral) 8×50 mg/kg, days 5-10,12,13, Table I): 82%
- Relative tumour size (% of control value) ([4]; o. (oral) 8×100 mg/kg, days 5-10,12,13): 76%
- Survival time of animals with respect to geom. mean ([4]; o. (oral) 8×100 mg/kg, days 5-10,12,13, significant (&)): 112%
- Relative tumour size (% of control value) [4, 10]: 65%
- Survival time of animals with respect to geom. mean [4, 10]: 123%
- Relative tumour size (% of control value) [4, 11]: 48%
- Survival time of animals with respect to geom. mean [4, 11]: 125%
- Survival time of animals with respect to geom. mean ([4]; p.o. 8×50 mg/kg, days 5-10,12,13, Table III, marked ^): 102%
- Relative tumour size (% of control value) ([4]; p.o. 8×50 mg/kg, days 5-10,12,13, Table III, significant (&)): 73%
- Survival time of animals with respect to geom. mean ([4]; s.c. 8×50 mg/kg, days 5-10,12,13, Table I, significant (&)): 121%
- Survival time of animals with respect to geom. mean ([4]; s.c. 8×50 mg/kg, days 5-10,12,13, Table III, marked ^): 107%
- Relative tumour size (% of control value) ([4]; s.c. 8×50 mg/kg, days 5-10,12,13, Table I): 66%
- Relative tumour size (% of control value) ([4]; s.c. 8×50 mg/kg, days 5-10,12,13, Table III, significant (&)): 58%

SMILES: CN(C)CC(C)(C)COc1cc2c(c3ccccc13)-c1ccccc1C2=O [compound 13467, hydrochloride]
- Survival time of animals with respect to geom. mean (Yoshida's ascitic tumor; [8]): 256%
- Survival time of animals with respect to geom. mean (Yoshida's ascitic tumor; [9]): 232%
- LD50 (Acute toxicity in mice): 550 mg/kg
- Survival time of animals with respect to median (La leukaemia; s.c. 1×300 mg/kg, day 3, significant (&)): 186%
- Survival time of animals with respect to median (L1210 leukaemia; s.c. 1×250 mg/kg, day 1, significant (&)): 135%
- IC50 (Yoshida's Tumor): 101 µM
- Survival time of animals with respect to geom. mean ([4]; s.c. 8×25 mg/kg, days 5-10,12,13): 89%
- Relative tumour size (% of control value) ([4]; s.c. 8×25 mg/kg, days 5-10,12,13, significant (&)): 45%
